Data set [1] concerns Mus musculus. Briefly: Effect on behavioral activity in mouse assessed as convulsion-induced hind limb extension at 30 to 40 mg/kg, ip. The class given is functional, organism-based. Particulars: Hindlimb.
Data set [2] deals with Mus musculus. Briefly: Effect on central nervous system in mouse assessed as behavioral activity at 10 to 20 mg/kg, ip. In kind it is functional, organism-based.
Data set [3] relates to Rattus norvegicus. Nature of the data set: Increase in rectal temperature in Wistar albino rat at 10 mg/kg, ip by telethermometer relative to control. In kind it is functional. Particulars: route intraperitoneal.
Data set [4] can be described thus: Acute toxicity in ip dosed mouse. Particulars: in vivo. In kind it is organism-based.
In data set [5] the test system is Rattus norvegicus. Briefly: Antinociceptive activity in Wistar albino rat assessed as increase in latent period of tail flick response at 20 mg/kg, ip by tail-hot wire technique. In kind it is functional. As to conditions: route intraperitoneal.
In data set [6] the test system is Rattus norvegicus. Briefly: Antinociceptive activity in Wistar albino rat assessed as increase in latent period of tail flick response at 10 mg/kg, ip by tail-hot wire technique. As to conditions: route intraperitoneal. The class given is functional.
The subject of data set [7] is Rattus norvegicus. Nature of the data set: Increase in rectal temperature in Wistar albino rat at 5 mg/kg, ip by telethermometer relative to control. The class given is functional. As to conditions: route intraperitoneal.
The subject of data set [8] is Rattus norvegicus. Briefly: Increase in rectal temperature in Wistar albino rat at 20 mg/kg, ip by telethermometer relative to control. The class given is functional. As to conditions: route intraperitoneal.
The test system of data set [9] is Hoplobatrachus tigerinus. Briefly: Induction of tetanic convulsion in frog at 40 mg/kg dosed in ventral lymph sac. The class given is functional, organism-based. Also noted: dose 40 mg/kg.
For data set [10], the system named is Mus musculus. Nature of the data set: Increase in locomotor activity in mouse at 10 mg/kg, ip after 30 mins by actophotometer. In kind it is functional, organism-based. The arrangement: dose 10 mg/kg.
The test system of data set [11] is Mus musculus. Briefly: Potentiation of hexobarbitone-induced sleeping time in mouse at 5 mg/kg, ip. The class given is functional. Particulars: route intraperitoneal.
A short description of data set [12]: Potentiation of amphetamine-induced lethal activity in Wistar albino rat assessed as mortality after 4 days. In kind it is organism-based. Particulars: in vivo, read-out: Activity.
Data set [13] relates to Mus musculus. Briefly: Potentiation of hexobarbitone-induced sleeping time in mouse at 20 mg/kg, ip. The class given is functional. As to conditions: route intraperitoneal.
For data set [14], the system named is Mus musculus. Nature of the data set: Induction of hypnosis in mouse at 100 mg/kg, ip. In kind it is functional. Particulars: route intraperitoneal.
The species named for data set [15] is Mus musculus. Briefly: Effect on behavioral activity in mouse in presence of mephenesin. In kind it is functional, organism-based.
Data set [16] is described as follows: Toxicity in Wistar albino rat assessed as mortality after 4 days. In kind it is organism-based. As to conditions: in vivo, read-out: Activity.

In general, LD50 refers to the dose at which mortality reaches 50%. A higher LD50 goes with a less toxic substance.

Molecules are shown by their SMILES. The source made the active and inactive calls. The calls are words filed in the database; no cut-off is given here.

Take `COc1ccc(C[C@H]2c3cc(O)c(OC)cc3CCN2C)cc1O` [(S)-RETICULINE]: the outcome in data set [1], in data set [2], in data set [9] and in data set [10] was Active. Also, the Activity is 0.69 °C in [3]; 11.9 s in data set [5]; 7.8 s in [6]; 0.36 °C in data set [7]; 1.1 °C in data set [8]; 56.2 min in data set [11]. In addition, in data set [13], the Activity amounted to 23.7 min. Moreover, the LD50 in data set [4] was 56 mg/kg. Besides, the mortality at 96 h in [12] was 60%.

On to `CN1C(=O)NC(=O)C(C)(C2=CCCCC2)C1=O` (stereo unspecified) [HEXOBARBITAL], for which the Activity in data set [14] was found to be 31.3 min.

Consider `Cc1ccccc1OCC(O)CO` (stereo unspecified), for which, in data set [15], the result was inactive.

`CC(N)Cc1ccccc1` (stereo unspecified) [AMPHETAMINE]: the mortality at 96 h in [16] was found to be 10%.

These data come from ChEMBL document CHEMBL1158649, “Constituents of Pachygone ovata and Pharmacological Action of its Major Leaf Alkaloid” (J Nat Prod, 1979).
